Laboratory results: PubChem BioAssay AID1963434 (Molecular Pharmacology Branch, DTP, NCI, 2024)

Tested on: 755483-174-R-J1-PDC complex spheroid growth, percent test/control
Assay: Anticancer human tumor 755483-174-R-J1-PDC patient-derived rhabdomyosarcoma cell line growth inhibition [Asc]
Conditions: for IC50: curve of first compound; for viability, T/C: stronger effect = lower value; active means viability on the fitted dose curve at most 10% of control; inactive means the rest
Method in brief: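 Complex solid-tumor spheroids incorporating human endothelial and mesenchymal stem cells received single agents or combinations over half-log dilution ranges anchored to clinical Cmax.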

[1] = second compound 0.01 µM, first compound 0.00316 µM
[2] = second compound 0.01 µM, first compound 0.01 µM
[3] = second compound 0.01 µM, first compound 0.0316 µM
[4] = second compound 0.01 µM, first compound 0.1 µM
[5] = second compound 0.0316 µM, first compound 0.00316 µM
[6] = second compound 0.0316 µM, first compound 0.01 µM
[7] = second compound 0.0316 µM, first compound 0.0316 µM
[8] = second compound 0.0316 µM, first compound 0.1 µM
[9] = second compound 0.1 µM, first compound 0.00316 µM
[10] = second compound 0.1 µM, first compound 0.01 µM
[11] = second compound 0.1 µM, first compound 0.0316 µM
[12] = second compound 0.1 µM, first compound 0.1 µM
[13] = second compound 0.316 µM, first compound 0.00316 µM
[14] = second compound 0.316 µM, first compound 0.01 µM
[15] = second compound 0.316 µM, first compound 0.0316 µM
[16] = second compound 0.316 µM, first compound 0.1 µM
[17] = second compound 1 µM, first compound 0.00316 µM
[18] = second compound 1 µM, first compound 0.01 µM
[19] = second compound 1 µM, first compound 0.0316 µM
[20] = second compound 1 µM, first compound 0.1 µM
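Further: spheroids exposed to compounds for seven days before readout.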

COc1c(OCCCN2CCOCC2)ccc2c3n(c(=NC(=O)c4cnc(N)nc4)nc12)CCN3 + CNC(C)C(=O)NC1CN(S(=O)(=O)c2cccc(S(=O)(=O)N3CCC4CCC(C(=O)NC(c5ccccc5)c5ccccc5)N4C(=O)C(NC(=O)C(C)NC)C3)c2)CCC2CCC(C(=O)NC(c3ccccc3)c3ccccc3)N2C1=O
21.4 nM: IC50 (second compound 0.01 µM)
< 3.16 nM: IC50 (second compound 0.0316 µM) | IC50 (second compound 0.1 µM) | IC50 (second compound 0.316 µM) | IC50 (second compound 1 µM)
active: viability, T/C (second compound 0.01 µM, first compound 0.316 µM) 8.95% | viability, T/C (second compound 0.01 µM, first compound 1 µM) 3.6% | viability, T/C (second compound 0.0316 µM, first compound 0.316 µM) 5.22% | viability, T/C (second compound 0.0316 µM, first compound 1 µM) 3.87% | viability, T/C (second compound 0.1 µM, first compound 0.316 µM) 6.95% | viability, T/C (second compound 0.1 µM, first compound 1 µM) 3.25% | viability, T/C (second compound 0.316 µM, first compound 1 µM) 1.75%
inactive: viability, T/C [1] 59.1% | viability, T/C [2] 59.4% | viability, T/C [3] 45.7% | viability, T/C [4] 20.4% | viability, T/C [5] 41.9% | viability, T/C [6] 56.3% | viability, T/C [7] 40.2% | viability, T/C [8] 19% | viability, T/C [9] 36% | viability, T/C [10] 43.2% | viability, T/C [11] 35.6% | viability, T/C [12] 11.6% | viability, T/C [13] 32% | viability, T/C [14] 29.7% | viability, T/C [15] 51% | viability, T/C [16] 13.7% | viability, T/C (second compound 0.316 µM, first compound 0.316 µM) 6.6% | viability, T/C [17] 35.4% | viability, T/C [18] 16.7% | viability, T/C [19] 24.5% | viability, T/C [20] 27.5% | viability, T/C (second compound 1 µM, first compound 0.316 µM) 22.7% | viability, T/C (second compound 1 µM, first compound 1 µM) 1.36%

NC(=O)C(=Cn1cnc(-c2cc(C(F)(F)F)cc(C(F)(F)F)c2)n1)c1cncnc1 + CNC(C)C(=O)NC1CN(S(=O)(=O)c2cccc(S(=O)(=O)N3CCC4CCC(C(=O)NC(c5ccccc5)c5ccccc5)N4C(=O)C(NC(=O)C(C)NC)C3)c2)CCC2CCC(C(=O)NC(c3ccccc3)c3ccccc3)N2C1=O
inactive: viability, T/C (second compound 0.01 µM, first compound 0.000949 µM) 73.8% | viability, T/C (second compound 0.01 µM, first compound 0.003 µM) 46.7% | viability, T/C (second compound 0.01 µM, first compound 0.00949 µM) 15.2% | viability, T/C (second compound 0.0316 µM, first compound 0.000949 µM) 63.4% | viability, T/C (second compound 0.0316 µM, first compound 0.003 µM) 36.2% | viability, T/C (second compound 0.0316 µM, first compound 0.00949 µM) 13.5% | viability, T/C (second compound 0.0316 µM, first compound 0.03 µM) 6.2% | viability, T/C (second compound 0.0316 µM, first compound 0.0949 µM) 6.42% | viability, T/C (second compound 0.0316 µM, first compound 0.3 µM) 22% | viability, T/C (second compound 0.1 µM, first compound 0.000949 µM) 41.2% | viability, T/C (second compound 0.1 µM, first compound 0.003 µM) 35.9% | viability, T/C (second compound 0.1 µM, first compound 0.00949 µM) 7.59% | viability, T/C (second compound 0.316 µM, first compound 0.000949 µM) 26.7% | viability, T/C (second compound 0.316 µM, first compound 0.003 µM) 21% | viability, T/C (second compound 0.316 µM, first compound 0.00949 µM) 22% | viability, T/C (second compound 0.316 µM, first compound 0.03 µM) 4.35% | viability, T/C (second compound 0.316 µM, first compound 0.0949 µM) 26.3% | viability, T/C (second compound 1 µM, first compound 0.000949 µM) 28.7% | viability, T/C (second compound 1 µM, first compound 0.003 µM) 17.9% | viability, T/C (second compound 1 µM, first compound 0.00949 µM) 22.5%
2.6 nM: IC50 (second compound 0.01 µM)
< 0.949 nM: IC50 (second compound 0.1 µM) | IC50 (second compound 0.316 µM) | IC50 (second compound 1 µM)
1.67 nM: IC50 (second compound 0.0316 µM)
active: viability, T/C (second compound 0.01 µM, first compound 0.03 µM) 5.78% | viability, T/C (second compound 0.01 µM, first compound 0.0949 µM) 4.79% | viability, T/C (second compound 0.01 µM, first compound 0.3 µM) 3.74% | viability, T/C (second compound 0.1 µM, first compound 0.03 µM) 6.43% | viability, T/C (second compound 0.1 µM, first compound 0.0949 µM) 4.59% | viability, T/C (second compound 0.1 µM, first compound 0.3 µM) 3.8% | viability, T/C (second compound 0.316 µM, first compound 0.3 µM) 2.93% | viability, T/C (second compound 1 µM, first compound 0.03 µM) 2.28% | viability, T/C (second compound 1 µM, first compound 0.0949 µM) 3.49% | viability, T/C (second compound 1 µM, first compound 0.3 µM) 1.7%

NC1CCC(NC2CC2c2ccccc2)CC1 (stereo not given) + CNC(C)C(=O)NC1CN(S(=O)(=O)c2cccc(S(=O)(=O)N3CCC4CCC(C(=O)NC(c5ccccc5)c5ccccc5)N4C(=O)C(NC(=O)C(C)NC)C3)c2)CCC2CCC(C(=O)NC(c3ccccc3)c3ccccc3)N2C1=O
< 0.316 nM: IC50 (second compound 0.01 µM) | IC50 (second compound 0.0316 µM) | IC50 (second compound 0.1 µM) | IC50 (second compound 0.316 µM) | IC50 (second compound 1 µM)
inactive: viability, T/C (second compound 0.01 µM, first compound 0.000316 µM) 27.4% | viability, T/C (second compound 0.01 µM, first compound 0.001 µM) 38.9% | viability, T/C [1] 36.8% | viability, T/C [2] 48.5% | viability, T/C [3] 50.3% | viability, T/C [4] 45.1% | viability, T/C (second compound 0.0316 µM, first compound 0.000316 µM) 36.4% | viability, T/C (second compound 0.0316 µM, first compound 0.001 µM) 24.9% | viability, T/C [5] 31.8% | viability, T/C [6] 37.5% | viability, T/C [7] 28.9% | viability, T/C [8] 30% | viability, T/C (second compound 0.1 µM, first compound 0.000316 µM) 32.6% | viability, T/C (second compound 0.1 µM, first compound 0.001 µM) 27.7% | viability, T/C [9] 33.4% | viability, T/C [10] 31.4% | viability, T/C [11] 45.8% | viability, T/C [12] 28.4% | viability, T/C (second compound 0.316 µM, first compound 0.000316 µM) 26.7% | viability, T/C (second compound 0.316 µM, first compound 0.001 µM) 33.6% | viability, T/C [13] 37.8% | viability, T/C [14] 29.1% | viability, T/C [15] 21.3% | viability, T/C [16] 29.5% | viability, T/C (second compound 1 µM, first compound 0.000316 µM) 25.9% | viability, T/C (second compound 1 µM, first compound 0.001 µM) 8.86% | viability, T/C [17] 23.5% | viability, T/C [18] 20% | viability, T/C [19] 21.7% | viability, T/C [20] 25.7%
